Test results: patent US8617614B2, “Sustained release preparation for tissue regeneration therapy” (Ono Pharmaceutical Co., Ltd., priority 2006, dated 2013)

System: hippocampal CA1 region nerve cells
Test: Number of nerve cells in hippocampal CA1 region, rat 4-VO model (Nissl staining)
Format: in vivo
Settings: for number of hippocampal CA1 pyramidal nerve cells relative to the group given the medium (Test Group 3): rat 4-VO Test 1, day 42, s.c. twice daily, present drug 10, ornoprostil 0.1, PGE1•αCD 1.5 and 3 mg/kg

For `CCCCC[C@H](O)/C=C/[C@H]1[C@H](O)CC(=O)[C@@H]1CCCCCCC(=O)O` [PGE1•αCD, prostaglandin E1, reference compound], the “Number of nerve cells per unit length (count/mm) Left (L)” value (rat 4-VO Test 1, Test Group 6: 1.5 mg/kg (as PGE1) s.c. twice daily 42 days) was 105.7 ± 24.0 count/mm and the “number of hippocampal CA1 pyramidal nerve cells relative to the group given the medium (Test Group 3)” value was “significant increase”.
With `CCCC[C@H](C)C[C@H](O)/C=C/[C@H]1[C@H](O)CC(=O)[C@@H]1CC(=O)CCCCC(=O)OC` [ornoprostil, reference compound] the “number of hippocampal CA1 pyramidal nerve cells relative to the group given the medium (Test Group 3)” value was “significant increase”.
